Where only a bound is given, the exact number is not on record here.

The assay deals with Coagulation factor X (Homo sapiens, UniProt P00742). The experiment in a line: Inhibitory activity against human FXa.
Chain of Coagulation factor X (P00742 41-179 limits assumed): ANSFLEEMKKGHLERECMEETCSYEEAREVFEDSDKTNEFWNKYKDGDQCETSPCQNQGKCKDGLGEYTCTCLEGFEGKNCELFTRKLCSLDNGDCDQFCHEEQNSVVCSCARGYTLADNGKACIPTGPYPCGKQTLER
Chain of Coagulation factor X (P00742 235-488 limits assumed): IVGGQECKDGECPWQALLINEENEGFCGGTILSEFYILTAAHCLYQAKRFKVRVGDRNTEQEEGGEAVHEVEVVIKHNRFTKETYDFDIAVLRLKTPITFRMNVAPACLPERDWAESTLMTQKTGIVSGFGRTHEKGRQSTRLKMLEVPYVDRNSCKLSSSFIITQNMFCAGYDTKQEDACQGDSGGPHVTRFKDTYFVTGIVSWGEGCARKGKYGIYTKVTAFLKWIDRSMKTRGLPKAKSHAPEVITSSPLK

Turning to `COc1ccc(C(=O)C(C#N)C(=Nc2ccc3oc(C)cc3c2)N[C@H]2CCCCN(CC(=O)N3CCCC3)C2=O)cc1` (stereo partly drawn) [(S,Z)-2-(4-methoxybenzoyl)-3-(2-methylbenzofuran-5-ylamino)-3-(2-oxo-1-(2-oxo-2-(pyrrolidin-1-yl)ethyl)azepan-3-ylamino)acrylonitrile], the 50% inhibitory concentration (IC50) (commonly the concentration that gives 50% inhibition) was 13 nM.

`Cc1cc2cc(N=C(N[C@H]3CCCCN(CC(=O)N4CCCC4)C3=O)C(C#N)C(=O)NC(N)=O)ccc2o1` (stereo partly drawn) [(S,Z)-1-(2-cyano-3-(2-methylbenzofuran-5-ylamino)-3-(2-oxo-1-(2-oxo-2-(pyrrolidin-1-yl)ethyl)azepan-3-ylamino)acryloyl)urea] gave an IC50 of 13 nM. In other words, the double-digit nanomolar range.

Consider `Cc1cc2cc(N=C(N[C@H]3CCCCN(CC(=O)N4CCCC4)C3=O)C(C#N)C(=O)c3ccc(Cl)cc3)ccc2o1` (stereo partly drawn) [(S,Z)-2-(4-chlorobenzoyl)-3-(2-methylbenzofuran-5-ylamino)-3-(2-oxo-1-(2-oxo-2-(pyrrolidin-1-yl)ethyl)azepan-3-ylamino)acrylonitrile], for which 13 nM corresponded to half-maximal inhibition (IC50).

With `Cc1cc2cc(N=C(N[C@H]3CCCCN(CC(=O)N4CCCC4)C3=O)C(C#N)C(=O)OC(C)(C)C)ccc2o1` (stereo partly drawn) [(S,Z)-tert-butyl 2-cyano-3-(2-methylbenzofuran-5-ylamino)-3-(2-oxo-1-(2-oxo-2-(pyrrolidin-1-yl)ethyl)azepan-3-ylamino)acrylate], half-maximal inhibition (IC50) was put at 57 nM.

Turning to `Cc1ccc(NC(C[N+](=O)[O-])=N[C@H]2CCCCN(CC(=O)N3CCCC3)C2=O)cc1` [(S,Z)-3-(1-(p-toluidino)-2-nitrovinylamino)-1-(2-oxo-2-(pyrrolidin-1-yl)ethyl)azepan-2-one], the IC50 was above 34000 nM.

As to `CN(C)c1ccc(NC(C[N+](=O)[O-])=N[C@H]2CCCCN(CC(=O)N3CCCC3)C2=O)cc1` [(S,Z)-3-(1-(4-(dimethylamino)phenylamino)-2-nitrovinylamino)-1-(2-oxo-2-(pyrrolidin-1-yl)ethyl)azepan-2-one], the IC50 was above 34000 nM.

For the molecule `Cc1cc2cc(N=C(N[C@H]3CCCCN(CC(=O)N4CCCC4)C3=O)C(C#N)C(=O)N3CCC(C)CC3)ccc2o1` (stereo partly drawn) [(S,Z)-3-(2-methylbenzofuran-5-ylamino)-2-(4-methylpiperidine-1-carbonyl)-3-(2-oxo-1-(2-oxo-2-(pyrrolidin-1-yl)ethyl)azepan-3-ylamino)acrylonitrile], the IC50 turned out to be 57 nM.

Values taken from BindingDB's records for doi:10.1016/j.bmcl.2005.08.107 (Bristol-Myers Squibb Pharmaceutical Research Institute, 2005).
